The supplement of paper PMC4862054

Assays:
Assay in all cases: normalised response (% of control), CellTiter-Glo; higher = more viable cells (100 = DMSO, 0 = benzethonium chloride kill control)
Details in all cases: incubation time: 72 h
DU-4475 = system: DU-4475
Outline: (§1)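 Breast cancer cell lines were exposed for 72 h in 384-well plates to compound at 5 concentrations, 10-fold apart, covering a 10,000-fold range fixed for each compound. Plates were read for CellTox Green fluorescence and CellTiter-Glo luminescence and normalised to 0.1 % DMSO (100) and a positive kill control (0). Each value is the normalised signal at one concentration of the series.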

CAL-85-1 = system: CAL-85-1
Outline: as §1

MFM-223 = system: MFM-223
Outline: as §1

SK-BR-3 = system: SK-BR-3
Outline: as §1

MDA-MB-453 = system: MDA-MB-453
Outline: as §1

CAL-51 = system: CAL-51
Outline: as §1

BT-549 = system: BT-549
Outline: as §1

Hs578T = system: Hs578T
Outline: as §1

MDA-MB-231 = system: MDA-MB-231
Outline: as §1

HCC1937 = system: HCC1937
Outline: as §1

HCC1143 = system: HCC1143
Outline: as §1

BT-474 = system: BT-474
Outline: as §1

MDA-MB-468 = system: MDA-MB-468
Outline: as §1

MCF-10A = system: MCF-10A
Outline: as §1

HDQ-P1 = system: HDQ-P1
Outline: as §1

HCC1599 = system: HCC1599
Outline: as §1

CAL-120 = system: CAL-120
Outline: as §1

CAL-148 = system: CAL-148
Outline: as §1

MDA-MB-436 = system: MDA-MB-436
Outline: as §1

| Structure (SMILES) | normalised response (DU-4475) | normalised response (CAL-85-1) | normalised response (MFM-223) | normalised response (SK-BR-3) | normalised response (MDA-MB-453) | normalised response (CAL-51) | normalised response (BT-549) | normalised response (Hs578T) | normalised response (MDA-MB-231) | normalised response (HCC1937) | normalised response (HCC1143) | normalised response (BT-474) | normalised response (MDA-MB-468) | normalised response (MCF-10A) | normalised response (HDQ-P1) | normalised response (HCC1599) | normalised response (CAL-120) | normalised response (CAL-148) | normalised response (MDA-MB-436) |
| --- | --- | --- | --- | --- | --- | --- | --- | --- | --- | --- | --- | --- | --- | --- | --- | --- | --- | --- | --- |
| COc1cc(OC2CCN(C)CC2)ccc1Nc1ncc2c(n1)n(C1CCCC1)c(=O)n2C [AZ 3146] (10 nM) | 97% | 102% | 102% | 95.4% | 97.8% | 132% | 96.3% | 93% | 104% | 96.1% | 100% | 107% | 111% | 95.5% | 95.9% | 95.9% | 103% | 99.7% | 98.2% |
| CCn1c(-c2nonc2N)nc2cnc(Oc3cccc(NC(=O)c4ccc(OCCN5CCOCC5)cc4)c3)cc21 (10 nM) | 94.2% | 102% | 106% | 117% | 91.3% | 121% | 97.3% | 104% | 99.8% | 104% | 101% | 93.3% | 94.3% | 89% | 103% | 104% | 92.4% | 94.9% | 95% |
| COC(=O)c1ccc2c(c1)NC(=O)/C2=C(\Nc1ccc(N(C)C(=O)CN2CCN(C)CC2)cc1)c1ccccc1 [Nintedanib] (10 nM) | 103% | 95% | 103% | 115% | 115% | 125% | 100% | 104% | 91.2% | 97.3% | 97% | 96.9% | 102% | 107% | 104% | 133% | 100% | 105% | 104% |
| CCOC(=O)CCNc1cc(N2CCc3ccccc3CC2)nc(-c2ccccn2)n1 [GSK-J4] (10 nM) | 99% | 93.1% | 99.4% | 97.9% | 91.9% | 102% | 101% | 97% | 95.1% | 93.1% | 92.6% | 97.3% | 97.8% | 102% | 97.4% | 104% | 102% | 92.8% | 95.8% |
| CNC(=O)c1ccc(N2C(=S)N(c3ccc(C#N)c(C(F)(F)F)c3)C(=O)C23CCC3)cc1F [RD162] (10 nM) | 102% | 101% | 102% | 94.4% | 104% | 102% | 93.8% | 95.3% | 98.2% | 97% | 105% | 103% | 105% | 105% | 96.3% | 99.3% | 95.5% | 107% | 93.7% |
| COc1cc2c(NC3CCN(C(C)C)CC3)nc(N3CCC(F)(F)CC3)nc2cc1OCCCN1CCCC1 [UNC0642] (10 nM) | 94.6% | 96.6% | 88.4% | 108% | 92% | 86.3% | 97.7% | 107% | 95.3% | 98.2% | 95.3% | 97.7% | 89% | 102% | 97.4% | 96.5% | 95.2% | 88.6% | 101% |
| N#Cc1ccc(COC[C@H]2O[C@@H](n3c(NCc4ccc(Cl)c(Cl)c4)nc4c(N)ncnc43)[C@H](O)[C@@H]2O)cc1 (10 nM) | 106% | 98.1% | 113% | 132% | 106% | 76.3% | 103% | 101% | 106% | 98.7% | 107% | 107% | 101% | 101% | 97.5% | 92.3% | 97.2% | 115% | 108% |
| CN(C)c1nc(N(C)C)nc(N(C)C)n1 [Altretamine] (10 nM) | 100% | 101% | 109% | 113% | 115% | 101% | 100% | 110% | 101% | 99.3% | 105% | 101% | 104% | 109% | 98.9% | 103% | 97.9% | 109% | 96.5% |
| NC(=O)c1ccc(I)c([N+](=O)[O-])c1 [Iniparib] (10 nM) | 93.5% | 90.6% | 84.2% | 74.1% | 77.9% | 85.4% | 94.2% | 92.8% | 92.6% | 95.4% | 90% | 91.2% | 90.7% | 81.3% | 89.2% | 94.2% | 91.9% | 83.2% | 87.2% |
| COC(=O)c1ccc2c(c1)NC(=O)/C2=C(\Nc1ccc(N(C)C(=O)CN2CCN(C)CC2)cc1)c1ccccc1 [Nintedanib] (1 nM) | 101% | 99.1% | 99.1% | 101% | 120% | 121% | 97.6% | 95.9% | 98.7% | 97.7% | 97.1% | 98% | 110% | 103% | 102% | 103% | 104% | 110% | 101% |
| COc1cc(O)c2c(c1)/C=C/C[C@H](O)[C@H](O)C(=O)/C=C\C[C@H](C)OC2=O [(5Z)-7-Oxozeaenol] (1 nM) | 96.6% | 95.2% | 108% | 105% | 106% | 93.9% | 109% | 99.9% | 103% | 98.7% | 106% | 97.9% | 98% | 109% | 105% | 91.8% | 99.8% | 104% | 98% |
| O=C(/C=C/c1cccc(S(=O)(=O)Nc2ccccc2)c1)NO [Belinostat] (10 nM) | 97.2% | 93.8% | 88.5% | 68.9% | 97.1% | 80.2% | 101% | 94.3% | 98.5% | 94.8% | 99.2% | 98.2% | 105% | 96% | 88.5% | 96.5% | 96.9% | 85.7% | 91% |
| Nc1cc(C(F)(F)F)c(-c2cc(N3CCOCC3)nc(N3CCOCC3)n2)cn1 [Buparlisib] (10 nM) | 97.1% | 96.5% | 97.3% | 110% | 104% | 113% | 100% | 98.4% | 103% | 93.3% | 97.2% | 97.3% | 101% | 98.2% | 99% | 108% | 104% | 97% | 101% |
| Cc1[nH]c2ccccc2c1CCNCc1ccc(/C=C/C(=O)NO)cc1 [Panobinostat] (1 nM) | 99.1% | 104% | 100% | – | 92.8% | 118% | 101% | 98.7% | 102% | 96.5% | 104% | 103% | 103% | 99.9% | 102% | 100% | 101% | 101% | 107% |
| O=C(Nc1cccnc1)N1CCC(Cc2cccc(Oc3ccc(C(F)(F)F)cn3)c2)CC1 [PF-3845] (10 nM) | 105% | 103% | 119% | 96.7% | 106% | 88.9% | 96.7% | 108% | 109% | 103% | 106% | 110% | 101% | 115% | 97.3% | 96.9% | 105% | 112% | 100% |
| C=C1C[C@@H]2[C@H](CC[C@]3(C)C(=O)CC[C@@H]23)[C@@]2(C)C=CC(=O)C=C12 [Exemestane] (10 nM) | 106% | 108% | 108% | – | 116% | 70.2% | 98% | 99.7% | 106% | 103% | 99.7% | 21% | 109% | 116% | 98.9% | 99.1% | 98% | 109% | 104% |
| COc1cc(O)c2c(c1)/C=C/C[C@H](O)[C@H](O)C(=O)/C=C\C[C@H](C)OC2=O [(5Z)-7-Oxozeaenol] (10 nM) | 102% | 96.4% | 107% | 107% | 93% | 107% | 103% | 104% | 109% | 106% | 108% | 106% | 100% | 112% | 96.9% | 121% | 94.9% | 106% | 99% |
| O=C(Nc1ccncc1)C(=O)c1cn(Cc2ccc(Cl)cc2)c2ccccc12 [Indibulin] (10 nM) | 105% | 99.9% | 107% | – | 95% | 86.5% | 93.5% | 104% | 104% | 98.2% | 100% | 112% | 102% | 102% | 94.1% | 93.4% | 92.6% | 109% | 99.2% |
| Cc1cc(Nc2cc(CN3CCOCC3)c3nc(C)c(Cc4ccc(Cl)cc4F)n3n2)n[nH]1 [Gandotinib] (10 nM) | 104% | 101% | 105% | – | 99.3% | 92% | 100% | 99.5% | 102% | 94.2% | 102% | 106% | 101% | 108% | 106% | 118% | 98.2% | 110% | 104% |
| COCC1(CO)C(=O)C2CCN1CC2 (stereo not drawn) [Prima-1 Met] (10 nM) | 109% | 103% | 103% | – | 111% | 124% | 93.7% | 103% | 103% | 99% | 103% | 103% | 102% | 107% | 95.1% | 92.7% | 92.4% | 102% | 101% |
| Cc1ccc(NC(=O)c2ccc(CN3CCN(C)CC3)cc2)cc1Nc1nc(-c2cccnc2)cs1 [Masitinib] (10 nM) | 102% | 99.7% | 105% | – | 113% | 99.4% | 101% | 98.8% | 100% | 97.4% | 98.4% | 102% | 108% | 104% | 93.6% | 93.8% | 91.5% | 108% | 101% |
